The record followed here is ChEMBL document CHEMBL5113477, “Membrane acting Povarov-Doebner derived compounds potently disperse preformed multidrug resistant Gram-positive bacterial biofilms” (Eur J Med Chem, 2022).

Converted amounts (≈) assume the structure as drawn.

What all share (type): functional
Experiment [1] relates to Staphylococcus aureus. The experiment can be described thus: Antibacterial activity against Staphylococcus aureus ATCC 25923 assessed as reduction in visible bacterial growth incubated for 18 to 20 hrs by CLSI based broth microdilution analysis. Conditions: time 18-20 hrs.
In experiment [2] the test system is Staphylococcus aureus. The experiment in a line: Antibacterial activity against methicillin-resistant Staphylococcus aureus ATCC 33592 assessed as reduction in visible bacterial growth incubated for 18 to 20 hrs by CLSI based broth microdilution analysis. Conditions: time 18-20 hrs. (In broth dilution the organism is exposed to a series of concentrations in liquid medium.)

The next experiment concerns Listeria monocytogenes. The experiment in a line: Antibacterial activity against Listeria monocytogenes ATCC 19115 assessed as reduction in visible bacterial growth incubated for 18 to 20 hrs by CLSI based broth microdilution analysis. To be noted: time 18-20 hrs.
The test system of experiment [3] is Staphylococcus aureus. The experiment in a line: Antibacterial activity against methicillin-resistant Staphylococcus aureus USA 300 (ARLG 1567) assessed as reduction in visible bacterial growth incubated for 18 to 20 hrs by CLSI based broth microdilution analysis. Conditions: time 18-20 hrs.
The subject of experiment [4] is Staphylococcus aureus. The experiment can be described thus: Antibacterial activity against methicillin-resistant Staphylococcus aureus USA 300 (ARLG 1568) assessed as reduction in visible bacterial growth incubated for 18 to 20 hrs by CLSI based broth microdilution analysis. To be noted: time 18-20 hrs.
Experiment [5] deals with Staphylococcus aureus. The experiment in a line: Antibacterial activity against methicillin-resistant Staphylococcus aureus USA 300 (ARLG 1570) assessed as reduction in visible bacterial growth incubated for 18 to 20 hrs by CLSI based broth microdilution analysis. To be noted: time 18-20 hrs.
In experiment [6] the test system is Staphylococcus aureus. The experiment in a line: Antibacterial activity against methicillin-resistant Staphylococcus aureus USA 300 (ARLG 1569) assessed as reduction in visible bacterial growth incubated for 18 to 20 hrs by CLSI based broth microdilution analysis. Conditions: time 18-20 hrs.
Experiment [7] relates to Staphylococcus aureus. The experiment in a line: Antibacterial activity against methicillin-resistant Staphylococcus aureus USA 300 (ARLG 1561) assessed as reduction in visible bacterial growth incubated for 18 to 20 hrs by CLSI based broth microdilution analysis. Conditions: time 18-20 hrs.
Experiment [8] deals with Enterococcus faecalis. The experiment in a line: Antibacterial activity against Enterococcus faecalis ATCC 29212 assessed as reduction in visible bacterial growth incubated for 18 to 20 hrs by CLSI based broth microdilution analysis. Conditions: time 18-20 hrs.
Experiment [9] has as its system Staphylococcus aureus. The experiment can be described thus: Antibacterial activity against methicillin-resistant Staphylococcus aureus USA 300 (ARLG 1663) assessed as reduction in visible bacterial growth incubated for 18 to 20 hrs by CLSI based broth microdilution analysis. To be noted: time 18-20 hrs.
Experiment [10] has as its system Staphylococcus aureus. The experiment in a line: Antibacterial activity against methicillin-resistant Staphylococcus aureus USA 300 (ARLG 1649) assessed as reduction in visible bacterial growth incubated for 18 to 20 hrs by CLSI based broth microdilution analysis. To be noted: time 18-20 hrs.
Experiment [11] has as its system Staphylococcus aureus. The experiment can be described thus: Antibacterial activity against methicillin-resistant Staphylococcus aureus USA 300 (ARLG 1644) assessed as reduction in visible bacterial growth incubated for 18 to 20 hrs by CLSI based broth microdilution analysis. To be noted: time 18-20 hrs.
The test system of experiment [12] is Staphylococcus aureus. The experiment in a line: Antibacterial activity against methicillin-resistant Staphylococcus aureus USA 300 assessed as reduction in visible bacterial growth incubated for 18 to 20 hrs by CLSI based broth microdilution analysis. To be noted: time 18-20 hrs.
Experiment [13] relates to Staphylococcus aureus. The experiment in a line: Antibacterial activity against methicillin-resistant Staphylococcus aureus USA 300 (ARLG 1665) assessed as reduction in visible bacterial growth incubated for 18 to 20 hrs by CLSI based broth microdilution analysis. Conditions: time 18-20 hrs.
For experiment [14], the system named is Staphylococcus aureus. The experiment can be described thus: Antibiofilm activity against methicillin-resistant Staphylococcus aureus USA 300 in TSB broth assessed as dispersal of glucose-induced biofilm preincubated with glucose for 48 hrs followed by compound addition and measured after 24 hrs by crystal violet staining based analysis.
Experiment [15] has as its system Enterococcus faecium. The experiment in a line: Antibiofilm activity against vancomycin-resistant Enterococcus faecium ATCC 700221 in TSB broth assessed as dispersal of glucose-induced biofilm preincubated with glucose for 48 hrs followed by compound addition and measured after 24 hrs by crystal violet staining based analysis.
The subject of experiment [16] is Enterococcus faecalis. The experiment in a line: Antibiofilm activity against vancomycin-resistant Enterococcus faecalis ATCC 51575 in TSB broth assessed as dispersal of glucose-induced biofilm preincubated with glucose for 48 hrs followed by compound addition and measured after 24 hrs by crystal violet staining based analysis.
Experiment [17] relates to Enterococcus faecium. The experiment can be described thus: Antibacterial activity against vancomycin-resistant Enterococcus faecium ATCC 700221 assessed as reduction in visible bacterial growth incubated for 18 to 20 hrs by CLSI based broth microdilution analysis. To be noted: time 18-20 hrs.
For experiment [18], the system named is Enterococcus faecalis. The experiment can be described thus: Antibacterial activity against vancomycin-resistant Enterococcus faecalis ATCC 51575 assessed as reduction in visible bacterial growth incubated for 18 to 20 hrs by CLSI based broth microdilution analysis. To be noted: time 18-20 hrs.

The term MIC denotes the least concentration at which growth counts as inhibited. On to `Oc1ccc(-c2nc3ccc(S(F)(F)(F)(F)F)cc3c3c2[C@H]2CC[C@@H]3C2)cc1`, for which, in the experiment with Staphylococcus aureus [1], the minimum inhibitory concentration (MIC) is more than 16 µg/mL.

Regarding `Oc1ccc([C@@H]2Nc3cc(F)cc(F)c3[C@H]3[C@@H]4CC[C@@H](C4)[C@H]32)cc1`, in the experiment with Staphylococcus aureus [1], the MIC worked out at 4 µg/mL (≈ 12.2 µM).

Take `Oc1ccc([C@@H]2Nc3c(ccc(Cl)c3Cl)[C@H]3[C@@H]4CC[C@@H](C4)[C@H]32)cc1`: in the experiment with Staphylococcus aureus [1], the minimal inhibitory concentration (MIC) is 4 µg/mL (≈ 11.1 µM).

Regarding `Oc1ccc([C@@H]2Nc3ccc(F)cc3[C@H]3[C@@H]4CC[C@@H](C4)[C@H]32)cc1`, in the experiment with Staphylococcus aureus [1], the MIC was more than 16 µg/mL.

`Oc1ccc([C@@H]2Nc3c(OC(F)(F)F)cccc3[C@H]3[C@@H]4CC[C@@H](C4)[C@H]32)cc1`: in the experiment with Staphylococcus aureus [1], the minimum inhibitory concentration (MIC) was determined as 4 µg/mL (≈ 10.7 µM).

Broadly, the MBC is the smallest concentration meeting the test's criterion for killing. Take `CN[C@H](CC(C)C)C(=O)N[C@H]1C(=O)N[C@@H](CC(N)=O)C(=O)N[C@H]2C(=O)N[C@H]3C(=O)N[C@H](C(=O)N[C@H](C(=O)O)c4cc(O)cc(O)c4-c4cc3ccc4O)[C@H](O)c3ccc(c(Cl)c3)Oc3cc2cc(c3O[C@@H]2O[C@H](CO)[C@@H](O)[C@H](O)[C@H]2O[C@H]2C[C@](C)(N)[C@H](O)[C@H](C)O2)Oc2ccc(cc2Cl)[C@H]1O` [VANCOMYCIN]: the MBC with Staphylococcus aureus [2] worked out at 1 µg/mL (≈ 0.69 µM); in the experiment on Listeria monocytogenes it was 2 µg/mL (≈ 1.38 µM); in the experiment with Staphylococcus aureus [3] it was 1 µg/mL (≈ 0.69 µM); with Staphylococcus aureus [1], 2 µg/mL (≈ 1.38 µM); with Staphylococcus aureus [4] it was 1 µg/mL (≈ 0.69 µM); in the experiment on Staphylococcus aureus [5], 2 µg/mL (≈ 1.38 µM). The minimal bactericidal concentration (MBC) worked out at 1 µg/mL (≈ 0.69 µM) in the experiment on Staphylococcus aureus [6]; 1 µg/mL (≈ 0.69 µM) in the experiment with Staphylococcus aureus [7]; 2 µg/mL (≈ 1.38 µM) with Enterococcus faecalis [8]; 1 µg/mL (≈ 0.69 µM) with Staphylococcus aureus [9]; 1 µg/mL (≈ 0.69 µM) in the experiment on Staphylococcus aureus [10]; 1 µg/mL (≈ 0.69 µM) with Staphylococcus aureus [11]. For the same molecule, the values for the MBC in the experiment on Staphylococcus aureus [12] and in the experiment with Staphylococcus aureus [13] were 2 µg/mL (≈ 1.38 µM) and 8 µg/mL (≈ 5.52 µM), respectively. In addition, the minimum inhibitory concentration (MIC) in the experiment on Listeria monocytogenes came out at 1 µg/mL (≈ 0.69 µM); in the experiment with Enterococcus faecalis [8] it was 2 µg/mL (≈ 1.38 µM).

For `O=[N+]([O-])c1ccc(O)c2ncccc12` [NITROXOLINE], the MBEC in the experiment on Staphylococcus aureus [14], in the experiment with Enterococcus faecium [15] and in the experiment with Enterococcus faecalis [16] was 16 µg/mL each time.

`Oc1ccc([C@@H]2Nc3ccc(C(F)(F)F)cc3[C@H]3[C@@H]4CC[C@@H](C4)[C@H]32)cc1`: the minimum inhibitory concentration (MIC) in the experiment with Staphylococcus aureus [2], in the experiment on Listeria monocytogenes, with Enterococcus faecium [17], in the experiment on Staphylococcus aureus [1], in the experiment on Enterococcus faecalis [18] and in the experiment with Enterococcus faecalis [8] was 2 µg/mL (≈ 5.56 µM) each time. In the experiment with Staphylococcus aureus [12], the MIC amounted to 2 µg/mL (≈ 5.56 µM).

As for `Oc1ccc([C@@H]2Nc3c(SC(F)(F)F)cccc3[C@H]3[C@@H]4CC[C@@H](C4)[C@H]32)cc1`, in the experiment on Staphylococcus aureus [1], the MIC is more than 16 µg/mL.

For `Oc1ccccc1[C@@H]1Nc2ccc(S(F)(F)(F)(F)F)cc2[C@H]2[C@@H]3CC[C@@H](C3)[C@H]21`, in the experiment with Staphylococcus aureus [1], the minimum inhibitory concentration (MIC) was determined as 4 µg/mL (≈ 9.58 µM).

As for `Oc1c(Cl)cc(Cl)cc1Sc1cc(Cl)cc(Cl)c1O` [BITHIONOL], the MBEC in the experiment with Staphylococcus aureus [14], with Enterococcus faecium [15] and in the experiment on Enterococcus faecalis [16] was 8 µg/mL throughout.

With `Oc1ccc([C@@H]2Nc3ccc(OC(F)(F)F)cc3[C@H]3[C@@H]4CC[C@@H](C4)[C@H]32)cc1`, the minimal inhibitory concentration (MIC) in the experiment on Staphylococcus aureus [1] was more than 16 µg/mL.

For `Oc1cccc([C@@H]2Nc3ccc(SC(F)(F)F)cc3[C@H]3[C@@H]4CC[C@@H](C4)[C@H]32)c1`, the minimum inhibitory concentration (MIC) with Staphylococcus aureus [1] was determined as 4 µg/mL (≈ 10.2 µM).

`CC(=O)NC[C@H]1CN(c2ccc(N3CCOCC3)c(F)c2)C(=O)O1` [LINEZOLID]: the MBC with Staphylococcus aureus [2] is 64 µg/mL (≈ 190 µM); in the experiment with Staphylococcus aureus [3], more than 64 µg/mL; in the experiment with Enterococcus faecium [17], more than 128 µg/mL; in the experiment with Staphylococcus aureus [1], 64 µg/mL (≈ 190 µM); in the experiment on Staphylococcus aureus [4], more than 64 µg/mL; in the experiment with Staphylococcus aureus [5], 64 µg/mL (≈ 190 µM). In addition, the minimal bactericidal concentration (MBC) with Staphylococcus aureus [6] is 64 µg/mL (≈ 190 µM); in the experiment on Staphylococcus aureus [7], 64 µg/mL (≈ 190 µM); in the experiment with Enterococcus faecalis [18], more than 128 µg/mL; in the experiment with Enterococcus faecalis [8] it was 64 µg/mL (≈ 190 µM); in the experiment on Staphylococcus aureus [9] it was more than 64 µg/mL; in the experiment with Staphylococcus aureus [10] it was more than 64 µg/mL. Besides, the results for the MBC in the experiment on Staphylococcus aureus [11], in the experiment with Staphylococcus aureus [12] and in the experiment with Staphylococcus aureus [13] were more than 64 µg/mL, 128 µg/mL (≈ 379 µM) and more than 64 µg/mL, respectively. For the same molecule, the minimal inhibitory concentration (MIC) in the experiment with Listeria monocytogenes is 2 µg/mL (≈ 5.93 µM); in the experiment on Staphylococcus aureus [3], 1 µg/mL (≈ 2.96 µM); with Enterococcus faecium [17], 1 µg/mL (≈ 2.96 µM); with Staphylococcus aureus [4], 1 µg/mL (≈ 2.96 µM); in the experiment with Staphylococcus aureus [5] it was 1 µg/mL (≈ 2.96 µM); in the experiment on Staphylococcus aureus [6], 1 µg/mL (≈ 2.96 µM). For the same molecule, the minimum inhibitory concentration (MIC) with Staphylococcus aureus [7], in the experiment with Staphylococcus aureus [9], with Staphylococcus aureus [10], in the experiment on Staphylococcus aureus [11] and in the experiment with Staphylococcus aureus [13] was 1 µg/mL (≈ 2.96 µM) each time.

Turning to `Oc1ccc([C@@H]2Nc3ccc(OC(F)F)cc3[C@H]3[C@@H]4CC[C@@H](C4)[C@H]32)cc1`, the MIC in the experiment on Staphylococcus aureus [1] came out at 8 µg/mL (≈ 22.4 µM).

Regarding `Oc1cccc([C@@H]2Nc3ccc(S(F)(F)(F)(F)F)cc3[C@H]3[C@@H]4CC[C@@H](C4)[C@H]32)c1`, the MIC with Staphylococcus aureus [1] was 4 µg/mL (≈ 9.58 µM).

As for `Oc1ccc([C@@H]2Nc3ccccc3[C@H]3[C@@H]4CC[C@@H](C4)[C@H]32)cc1`, the MIC with Staphylococcus aureus [1] was more than 16 µg/mL.

As for `FS(F)(F)(F)(F)c1ccc2c(c1)[C@H]1[C@@H]3CC[C@@H](C3)[C@H]1[C@H](c1ccccc1)N2`, in the experiment with Staphylococcus aureus [1], the minimal inhibitory concentration (MIC) was more than 16 µg/mL.

Take `COc1ccc2c(c1)[C@H]1[C@@H]3CC[C@@H](C3)[C@H]1[C@H](c1ccc(O)cc1)N2`: in the experiment on Staphylococcus aureus [1], the minimal inhibitory concentration (MIC) stood at 4 µg/mL (≈ 12.4 µM).

Take `CSc1ccc2c(c1)[C@H]1[C@@H]3CC[C@@H](C3)[C@H]1[C@H](c1ccc(O)cc1)N2`: the MIC in the experiment with Staphylococcus aureus [1] was more than 16 µg/mL.

For `Oc1ccc([C@@H]2Nc3ccc(SC(F)(F)F)cc3[C@H]3[C@@H]4CC[C@@H](C4)[C@H]32)cc1`, the minimum inhibitory concentration (MIC) in the experiment on Staphylococcus aureus [2], with Listeria monocytogenes, in the experiment with Enterococcus faecium [17], in the experiment on Staphylococcus aureus [1], in the experiment on Enterococcus faecalis [18] and with Enterococcus faecalis [8] was 2 µg/mL (≈ 5.11 µM) each time. Besides, the MIC with Staphylococcus aureus [12] was found to be 2 µg/mL (≈ 5.11 µM).
